Where two headings read alike, the source gives them in different places.
Key:
[1] = molecular target: T1, murine COX-2 (Mus musculus, UniProt Q05769); assay: In vitro purified COX-2 inhibition assay (TLC, 14C-arachidonic acid); assay type: biochemical; details: for COX-2 Selectivity Index (COX-1 IC50/COX-2 IC50): in vitro, purified enzymes
T1 sequence (Q05769 18-604): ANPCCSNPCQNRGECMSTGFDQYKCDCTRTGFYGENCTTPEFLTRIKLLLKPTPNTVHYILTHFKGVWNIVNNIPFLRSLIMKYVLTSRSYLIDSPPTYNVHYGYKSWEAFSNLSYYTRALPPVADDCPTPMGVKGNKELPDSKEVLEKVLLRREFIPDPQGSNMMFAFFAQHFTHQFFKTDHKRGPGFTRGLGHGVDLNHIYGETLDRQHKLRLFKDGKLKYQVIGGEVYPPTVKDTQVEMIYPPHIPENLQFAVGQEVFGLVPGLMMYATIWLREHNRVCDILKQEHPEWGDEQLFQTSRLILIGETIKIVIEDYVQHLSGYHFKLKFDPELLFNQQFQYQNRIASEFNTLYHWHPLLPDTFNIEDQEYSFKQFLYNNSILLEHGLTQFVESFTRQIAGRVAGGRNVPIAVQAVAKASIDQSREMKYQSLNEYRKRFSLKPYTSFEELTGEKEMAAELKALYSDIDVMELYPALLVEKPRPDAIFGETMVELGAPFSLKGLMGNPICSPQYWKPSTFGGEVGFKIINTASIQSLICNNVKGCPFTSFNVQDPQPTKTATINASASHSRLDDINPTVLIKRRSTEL
Description: The in vitro cyclooxygenase (ovine COX-1 or human COX-2) inhibitory activities of these probes were tested by a previously described TLC assay (FIGS. 19-21). Briefly, reaction mixtures of 200 μL consisted of hematin-reconstituted protein in 100 mM Tris-HCl, pH 8.0, 500 μM phenol, and [1-^14C]arachidonic acid (50 μM, about 55-57 mCi/mmol, Perkin Elmer).
Inhibition Assay Using Purified COX-1 and COX-2. Inhibition of purified ovine COX-1 or mouse COX-2 by test compounds was assayed by a previously described method, which quantifies the conversion of [1-^14C]arachidonic acid to [1-^14C]prostaglandin products. Reaction mixtures of 200 ∝L consisted of hematin-reconstituted protein in 100 mM Tris-HCl, pH 8.0, 500 μM phenol, and [1-^14C]arachidonic acid (50 μM, ˜55-57 mCi/mmol, Perkin Elmer). For the time-dependent inhibition assay, hematin-reconstituted COX-1 ([…]) was preincubated at 25° C. for 17 min and 37° C. for 3 min with varying inhibitor concentrations in dimethylsulfoxide followed by the addition of [1-^14C]arachidonic acid (50 μM) for 30 s at 37° C. Reactions were terminated by solvent extraction in diethyl ether:methanol:1 M citrate buffer, pH 4.0 (30:4:1). The phases were separated by centrifugation at 2000 g for 2 min, and the organic phase was spotted on a thin-layer chromatography plate (EMD Kieselgel 60, VWR). The plate was developed in ethyl acetate:methylene chloride:glacial AcOH (75:25:1) at 4° C. Radiolabeled products were quantified with a radioactivity scanner (Bioscan, Inc., Washington, D.C.).

[2] = molecular target: T2, hCOX-2 in 1483 cells (Homo sapiens, UniProt P35354); assay: Intact cell COX-2 inhibition assay in 1483 HNSCC cells; assay type: cell-based
T2 construct: cells that express high levels of COX-2 were selected; endogenous in cells; host or cells: 1483 human head and neck squamous cell carcinoma (HNSCC) cells
T2 sequence (P35354 18-604): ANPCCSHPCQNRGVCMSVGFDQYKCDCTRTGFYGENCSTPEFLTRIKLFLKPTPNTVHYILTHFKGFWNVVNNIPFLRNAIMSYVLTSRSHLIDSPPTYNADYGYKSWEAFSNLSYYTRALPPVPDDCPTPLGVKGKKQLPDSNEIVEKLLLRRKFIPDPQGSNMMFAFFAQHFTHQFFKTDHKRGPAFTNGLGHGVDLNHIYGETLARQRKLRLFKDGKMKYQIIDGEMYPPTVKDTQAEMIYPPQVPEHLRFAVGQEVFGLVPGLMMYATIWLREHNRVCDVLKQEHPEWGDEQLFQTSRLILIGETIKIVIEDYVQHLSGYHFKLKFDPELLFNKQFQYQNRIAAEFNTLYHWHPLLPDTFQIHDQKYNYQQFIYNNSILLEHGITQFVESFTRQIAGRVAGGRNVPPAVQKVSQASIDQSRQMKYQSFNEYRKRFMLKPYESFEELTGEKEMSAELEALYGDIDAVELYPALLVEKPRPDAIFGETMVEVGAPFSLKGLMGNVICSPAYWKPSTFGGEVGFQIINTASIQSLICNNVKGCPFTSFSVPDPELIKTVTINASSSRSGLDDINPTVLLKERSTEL
Description: Following the promising results from the purified enzyme assay, the ability of compound 1 to inhibit COX-2 in intact cells was examined using a previously reported method. 1483 human head and neck squamous cell carcinoma (1483 HNSCC) cells that express high levels of COX-2 were selected. […]
Cell Culture and In Vitro Intact Cell Metabolism Assay. Inhibition of COX-2 in intact cells by test compounds was assayed by a previously described method. Human 1483 head and neck squamous cell carcinoma (HNSCC) cells (passage 8-18, mycoplasma negative by a polymerase chain reaction detection method) were cultured in DMEM/F12+10% fetal bovine serum+Antibiotic/Antimycotic in 6-well plates to 60% confluence. […] Reactions were terminated and analyzed by thin layer chromatography as described above.

[3] = tested on: COX-2 expressing 1483 tumors; assay: In vivo imaging of nude mice with 1483 xenografts; details: 1 mg/kg intraperitoneal, nude mice 1483 xenografts
Description: The specificity of probe 1 was also evaluated by targeting COX-2 in human tumor xenografts. Nude mice bearing 1483 xenograft tumors on the left flank were dosed by intraperitoneal injection with 1 mg/kg fluorocoxib A or compound 1 (FIG. 25). […] However, signal was detected in the COX-2 expressing 1483 tumors of mice dosed with compound 1 starting at 24 h. Maximum fluorescence is detectable in the tumor at 48 h post-injection of probe 1 (FIGS. 27A-C).
Establishment of xenograft tumors in nude mice. Human 1483 HNSCC cells and HCT116 colorectal carcinoma cells were used to grow tumor xenografts in nude mice using a previously described method. Female nude mice, NU-Foxlnu, were purchased at 6-7 weeks of age from Charles River Labs. Human 1483 HNSCC cells were trypsinized and resuspended in cold PBS containing 30% Matrigel such that 1×10^6 cells in 100 μl were injected subcutaneously on the left flank and grew for 2-3 weeks.
In vivo imaging of nude mice with xenografts. Fluorescence imaging of tumors by test compounds was performed by a previously described method. Female nude mice bearing medium-sized 1483 xenograft tumors on the left flank were dosed by intraperitoneal injection with 1 mg/kg compound 1. The animals were lightly anesthetized with 2% isoflurane for fluorescence imaging in the Xenogen IVIS 200 with the DSRed filter at 1.5 cm depth and 1 sec exposure (f2).

In the case of `COc1ccc2c(c1)c(CC(=O)NCCCCNC(=O)c1ccc(C3=c4cc5c6c(c4Oc4c3cc3c7c4CCCN7CCC3)CCC[N+]=6CCC5)c(C(=O)NC3CC(C)(C)N([O])C(C)(C)C3)c1)c(C)n2C(=O)c1ccc(Cl)cc1` [Compound 1], the IC50 ([1]; COX-2 IC50, in vitro purified cox assay) is reported as 0.303 µM, the “COX-2 Selectivity Index (COX-1 IC50/COX-2 IC50)” value [1] is reported as >83 and the IC50 ([1]; mCOX-2 IC50, purified murine COX-2 (63 nM), inhibitor 20 min, then 1-14C-AA (50 μM) 37° C. 30 s, duplicates) is reported as 0.3 µM. The IC50 ([2]; COX-2 IC50 in intact cells, 1483 HNSCC cells, compound 30 min 37° C., then [1-14C]-arachidonic acid 10 μM 20 min) was 0.28 µM, the IC50 ([2]; hCOX-2 IC50, 1483 cells, 8 μM 14C-AA, 30 min at 37° C.) was 0.285 µM and the “time post-injection at which tumor signal starts to be detected” value [3] was 24 h. For the same molecule, the “time post-injection of maximum tumor fluorescence” value [3] was 48 h.
For `COc1ccc2c(c1)c(CC(=O)NCCCCNC(=O)c1ccc(C3=c4cc5c6c(c4Oc4c3cc3c7c4CCCN7CCC3)CCC[N+]=6CCC5)c(C(=O)[O-])c1)c(C)n2C(=O)c1ccc(Cl)cc1` [Fluorocoxib A, reference compound], the “COX-2 Selectivity Index (COX-1 IC50/COX-2 IC50)” value [1] was >35, the IC50 ([2]; high throughput screening, intact cancer cells, read-out: COX-2 positive 1483 HNSCC cells IC50) was 0.3 µM and the “fluorescence in the tumor” value ([3]; 3 h post-injection) was “fluorescence was observed in the tumor”.
